Results on three compounds are retold here after publication PMC5512454 (Bioorganic & medicinal chemistry, 2017).

Data set [1] addresses D3 receptors in rat brain slices (Rattus norvegicus, UniProt P19020). Briefly: In-vitro autoradiography of coronal rat brain slices. It is filed as binding. The settings on record: proven by displacement with BP897 (1 μM).
Data set [2] concerns D3 receptors in rat brain. Briefly: Ex-vivo autoradiography of coronal rat brain sections. It is filed as in vivo. To be noted: co-injection of BP897; region of interest-to-background ratios; 60 min p.i.
Data set [3] has as its system dopamine D3 receptors in vivo. Description: PET imaging study in rat.
In data set [4] the test system is food-maintained responding. Description: Food-maintained behavior in rhesus monkeys. It is filed as in vivo.
In data set [5] the test system is cocaine-maintained responding. Description: Cocaine self-administration in rhesus monkeys. It is filed as in vivo.
For data set [6], the target named is human D3 receptor (Homo sapiens, UniProt P35462). Description: Radioligand displacement assay, hD3.
Sequence of human D3 receptor (P35462 whole entry): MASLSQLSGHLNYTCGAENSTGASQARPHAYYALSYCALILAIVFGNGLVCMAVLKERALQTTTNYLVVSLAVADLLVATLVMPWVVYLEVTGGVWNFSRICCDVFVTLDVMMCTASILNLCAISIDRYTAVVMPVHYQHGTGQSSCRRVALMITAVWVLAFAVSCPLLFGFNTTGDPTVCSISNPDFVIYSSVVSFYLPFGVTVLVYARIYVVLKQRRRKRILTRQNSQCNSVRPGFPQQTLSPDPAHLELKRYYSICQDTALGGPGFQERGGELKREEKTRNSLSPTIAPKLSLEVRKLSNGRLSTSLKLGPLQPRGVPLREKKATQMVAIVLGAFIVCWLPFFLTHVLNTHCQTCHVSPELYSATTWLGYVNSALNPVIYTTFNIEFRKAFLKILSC

The structures appear in SMILES notation.

Sequence of D3 receptors in rat brain slices (P19020 whole entry): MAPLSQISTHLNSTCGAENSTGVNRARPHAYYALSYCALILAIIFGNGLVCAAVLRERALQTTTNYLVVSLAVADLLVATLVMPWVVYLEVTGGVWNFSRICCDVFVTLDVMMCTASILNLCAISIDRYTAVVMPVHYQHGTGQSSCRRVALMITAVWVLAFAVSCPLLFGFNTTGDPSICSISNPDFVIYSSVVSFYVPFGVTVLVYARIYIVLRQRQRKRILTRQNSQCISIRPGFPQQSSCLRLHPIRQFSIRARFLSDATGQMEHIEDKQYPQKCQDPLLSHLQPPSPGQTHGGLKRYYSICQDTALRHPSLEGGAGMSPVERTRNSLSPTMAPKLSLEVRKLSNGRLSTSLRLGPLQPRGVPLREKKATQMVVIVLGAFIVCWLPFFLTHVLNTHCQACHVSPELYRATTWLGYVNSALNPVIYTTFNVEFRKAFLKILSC

Turning to `O=C(NCCCCN1CCN(c2ccccc2OCC[18F])CC1)c1cc2ccccn2n1` [[^18F]2, N-[4-[4-(2-[^18F]fluoroethoxyphenyl)-piperazin-1-yl]-butyl]-pyrazolo-[1,5-a]pyridin-2-carboxamide], the “Binding in rat brain slices, in-vitro autoradiography” value in data set [1] is given as “D3-specific binding”. Moreover, the “Radioligand displaced by BP897, third ventricle (3V)” value in data set [2] was 5–14%. For the same compound, in data set [3], the “Blood-brain-barrier (BBB) penetration” value is reported as “only low blood-brain-barrier (BBB) penetration”, the “Brain uptake of the radioligand in CNS structures” value is “marginal brain uptake” and the “Reduction of uptake in the pituitary gland by pretreatment with BP897” value was 25%. Moreover, the “Mean whole pituitary gland uptake of the radioligand” value in data set [3] (40 min p.i.) is 0.394 ± 0.016 % ID/g.

Consider `COc1ccccc1N1CCN(CCCCNC(=O)c2cc3ccccn3n2)CC1` [Compound 1], for which the “Food-maintained responding following the i.v. self-administration component (food 2)” value in data set [4] (food 2) was “did not appreciably alter”. Also, the “Reduction of food-maintained behavior during food 1 session” value in data set [4] (pretreatment 0.32 mg/kg, food 1 (before cocaine component)) is “approximately 30%”. Besides, the “Food 1 and 2 responding at low and intermediate doses” value in data set [4] (pretreatment 0.1 and 0.18 mg/kg) was “did not markedly decrease”. Besides, in data set [4] (suggested from food 2 components in sessions of i.v. saline availability), the “Duration of action of behaviorally active doses” value is below 2 h. For the same compound, in data set [5] (pretreatment 0.32 mg/kg, 0.03 mg/kg per injection i.v. cocaine, group average), the “Cocaine-maintained responding, % of control values” is “approximately 20%”. Besides, in data set [5] (various doses (Figure S2)), the “Effect of various pretreatment doses on cocaine-maintained responding” value is recorded as “dose-related decreases”.

`CC(C)(C)c1nc(N2CCN(CCCCNC(=O)c3cc4ccccc4s3)CC2)cc(C(F)(F)F)n1` [Compound 9, N-(4-(4-(2-tert-butyl-6-(trifluoromethyl)pyrimidin-4-yl)piperazin-1-yl)butyl)benzo[b]thiophene-2-carboxamide]: the “D3 selectivity over all biogenic amine receptors investigated” value in data set [6] is 1000–20000 fold.
